Where a SMILES comes first, the peptide text is derived from it.
How the values were obtained:
[1] = mouse, in vivo
[2] = system: thrombospondin-1 (Tsp-1) in WI-38 lung fibroblasts; test: Stimulation of Tsp-1 in WI-38 lung fibroblasts (western blot); type: cell-based
Excerpt: Identification of both a 4- and 5-amino acid peptide derived from the saposin A domain of Psap that was able to inhibit both a tail vein model of Lewis Lung Carcinoma metastasis and in an adjuvant model of breast cancer metastasis when administered systemically was previously described (3). The therapeutic efficacy of peptides is often limited by their stability, or resistance to degradation by proteases. […] The stability of the 4-amino acid Psap peptide by incorporating d-amino acids at different moieties was investigated. Two peptides with d-amino acids incorporated, in combination, at the first (aspartate) and third (leucine) or the second (tryptophan) and fourth (proline) residues were synthesized. The activity of these peptides along with the native 1-amino acid peptide in vitro by measuring their ability to stimulate thrombospondin-1 (Tsp-1) in WI-38 lung fibroblasts was tested.
While the results of the peptide treatment of the PDX model of ovarian cancer were very promising it was postulated that the stability and activity of the peptide could be increased even more. The peptide derived from Psap was located in a region of the protein that contained a 13-amino acid loop between two helices that was stabilized by a disulfide bond (3). As such a 5-amino acid peptide that was cyclized via backbone (N—C) cyclization was synthesized (FIG. 14A, cyclic DWLPK (SEQ ID NO: 1)). […]

[3] = Activity of cyclic versus linear peptide (FIG. 18)
Tsp-1 = Tsp-1 stimulation in macrophages in mice; type: in vivo; conditions: FIG. 7, F4/80 macrophages
[4] = system: patient-derived ovarian cancer cells expressing luciferase; test: Mouse model of ovarian cancer, luciferase tumor burden and histology; type: in vivo, mice; conditions: 10 mg/kg for 10 days
Experimental: Next the cyclic peptide DWLPK (SEQ ID NO: 1) was tested in a mouse model of ovarian cancer. For the ovarian cancer mouse model, 1 million patient-derived ovarian cancer cells expressing luciferase were injected intraperitoneally into mice. The tumor burden was measured in vivo using luciferase. Treatment with the cyclic peptide began after 40 days and was administered for 10 days at 10 mg/kg. After 10 days of treatment, the mice were euthanized and the tumor was analyzed histologically.

DF14 cells = test: DF14 PDX model of metastatic ovarian cancer, cyclic peptide for 10 days; type: in vivo, mice
Experimental: Based on these findings the efficacy of the cyclic peptide using the DF14 model was tested. In order to better study the effects of the peptide on the metastatic lesions mice were injected with 1×10^7 cells and allowed the luciferase signal to reach 9×10^9 RLU. The mice were treated with the cyclic peptide for only 10 days to ensure that there would be sufficient tumor tissue to analyze. […] The liver, spleen and omentum were analyzed of both the peptide and control treated mice by H&E, and IHC for Tsp-1, Gil and TUNEL. The metastatic lesions in the control treated mice were, on average, 2.3-fold larger than those in the peptide treated mice (FIG. 14E). […] Moreover, all of the lesions in the peptide treated mice contained a significant percentage of TUNEL positive cells, with an average of 40% TUNEL positive cells/lesion (FIGS. 14H and 14I). Conversely, control treated tumors contained, on average, only 1.4% TUNEL positive cells/lesion (FIGS. 14H and 14I).

[5] = Stability in human plasma at 37° C., read out as Tsp-1 stimulation in WI-38 fibroblasts (ELISA); type: in vitro ADME; conditions: 24 hours
Experimental: The cyclic peptide DWLPK (SEQ ID NO: 1) was also tested for stability in human plasma compared to the linear peptide dWIP (SEQ ID NO: 5). Each peptide was incubated in human plasma at 37 degrees Celsius, for 2, 4, 8, or 24 hours.
Cyclization also has the effect of increasing the stability of peptides by forcing them into a conformation that is not recognized by most naturally occurring proteases (9, 10, 14-18). The stability of the cyclic peptide to the linear d-amino acid peptide in human plasma was compared.

[6] = system: DSS-induced model of Crohn's Disease; test: Dextran Sodium Sulfate (DSS)-induced model of Crohn's Disease; type: in vivo, mice
Experimental: A model of Crohn's disease was used to test the efficacy of the cyclic peptide DWLPK (SEQ ID NO: 1) for treating Crohn's disease. The cyclic peptide was tested in a Dextran Sodium Sulfate (DSS)-induced model of Crohn's Disease where DSS was given to the mice in their drinking water (3.5% weight:volume) for 7 days. In one group the mice were treated concurrently with the cyclic peptide and DSS, while the other group was treated with DSS alone.

thrombospondin-1 (Tsp-1) = test: Tsp-1 activation in cultured cells by Western blot; type: cell-based; conditions: cyclic peptides, 4 micrograms/mL or 10 micrograms/mL, Western blot, FIG. 2
Experimental: Cells were cultured and contacted with 4 micrograms/mL or 10 micrograms/mL of each peptide and the level of thrombospondin-1 (Tsp-1) activation was measured by Western blot. Tsp-1 has been previously shown to be activated by Saposin A protein.

pancreatic cancer = test: Anti-tumor activity against pancreatic cancer (FIGS. 19 and 20); type: in vivo

## CC(C)C[C@@H]1NC(=O)[C@H](Cc2c[nH]c3ccccc23)NC(=O)[C@H](CC(=O)O)NC(=O)[C@H](CCCCN)NC(=O)[C@@H]2CCCN2C1=O [cyclic DWLPK] (cyclo(DWLPK))
[1]
  toxicity to the liver or spleen by histology: did not cause any toxicity
[2]
  Tsp-1 stimulation in vitro relative to d-amino acid linear peptide: 3 fold
[3]
  activity relative to the linear peptide: approximately 2 fold
Tsp-1
  Tsp-1 in macrophages in mice: stimulated Tsp-1 in macrophages
[4]
  size of treated tumors relative to untreated tumors by histology: < 25%
[4]; histology
  Tsp-1 expression in treated tumors: expressed Tsp-1
[4]; starting after 40 days, FIG. 6
  luciferase output (tumor burden): went down
DF14 cells; 10 days of treatment, on average
  size of metastatic lesions in control treated mice relative to peptide treated mice: 2.3 fold
DF14 cells; 10 days of treatment, control 1.4%
  TUNEL positive cells/lesion, average: 40%
DF14 cells; after 10 days of treatment, start at 9×10^9 RLU, 10 mg/kg QD
  average luciferase signal after treatment: 4×10^8 RLU
DF14 cells; all of the peptide treated tumors
  Tsp-1 staining of treated tumors (IHC): stained positive for Tsp-1
[5]; 37 degrees Celsius, FIG. 3
  ability to activate Tsp-1 after incubation in human plasma: retained the ability to activate Tsp-1
[5]; 37° C., ELISA
  Tsp-1 stimulating activity retained after incubation in human plasma: greater than 70%
[6]; DSS 3.5% in drinking water 7 days, peptide concurrently, FIG. 9
  inflammation (MPO enzymatic activity): significantly reduced inflammation
[6]; FIG. 10
  body weight loss versus DSS only: lost less weight
[6]; FIG. 11
  Tsp-1 stimulation in intestine: stimulate Tsp-1
  macrophage infiltration: inhibit macrophage infiltration
thrombospondin-1 (Tsp-1)
  effectiveness at increasing the level of Tsp-1: most effective
Pancreatic cancer; FIG. 19
  anti-tumor activity against pancreatic cancer: significant anti-tumor activity
Pancreatic cancer; FIG. 20
  effect on metastasis of pancreatic cancer: inhibits metastasis
  effect on metastatic pancreatic cancer: regresses metastatic pancreatic cancer
